Measurements: ChEMBL document CHEMBL4765389, “Antimicrobial and anti-inflammatory activities of short dodecapeptides derived from duck cathelicidin: Plausible mechanism of bactericidal action and endotoxin neutralization” (Eur J Med Chem, 2020)
Active and inactive are the calls of the source. The rule behind the calls is not given here.

Key:
[1] = system: Cell membrane; test: Induction of cell membrane permeability in Escherichia coli KCTC 1682 assessed as cytoplasmic membrane […] fluorescent signals at 2 times MIC measured after 1 hr by propidium iodide dye based flow cytometry analysis (reference value: 9.8 %); type: subcellular
[2] = system: Staphylococcus aureus; test: Antibacterial activity against methicillin-resistant Staphylococcus aureus CCARM 3090 assessed as reduction in bacterial growth incubated for 24 hrs in presence of oxacillin by CLSI based broth dilution method; type: functional; details: read-out: MIC100
[3] = system: Cell membrane; test: Induction of cell membrane permeability in Staphylococcus aureus KCTC 1621 assessed as cytoplasmic membrane depolarization at 2 times MIC by SYTOX dye based fluorescence assay; type: subcellular
[4] = system: Staphylococcus aureus; test: Antibacterial activity against methicillin-resistant Staphylococcus aureus CCARM 3090 assessed as fractional inhibitory concentration index incubated for 24 hrs in presence of oxacillin by CLSI based broth dilution method; type: functional
[5] = system: Staphylococcus aureus; test: Antibacterial activity against Staphylococcus aureus KCTC 1621 assessed as reduction in bacterial growth incubated for 24 hrs in presence of 2.5 mM CaCl2 by CLSI based broth dilution method; type: functional; details: read-out: MIC100
[6] = system: Cell membrane; test: Induction of cell membrane permeability in Escherichia coli KCTC 1682 assessed as […] at 2 times MIC by ONPG dye based spectrophotometry; type: subcellular
[7] = system: Escherichia coli; test: Antibacterial activity against Escherichia coli KCTC 1682 assessed as reduction in bacterial growth incubated for 24 hrs in presence of 6 uM NH4Cl by CLSI based broth dilution method; type: functional; details: read-out: MIC100
[8] = system: RAW264.7; test: Antiinflammatory activity in mouse RAW264.7 cells assessed as suppression of LPS binding by measuring LPS-FITC aggregation at 10 uM pretreated with LPS for 1 hr followed by compound addition and measured after 30 mins by flowcytometry analysis (reference value: 67.93 %); type: functional; details: 0.5 h
[9] = system: Staphylococcus aureus; test: Antibacterial activity against methicillin-resistant Staphylococcus aureus CCARM 3090 assessed as fractional inhibitory concentration incubated for 24 hrs in presence of ciprofloxacin by CLSI based broth dilution method; type: functional
[10] = Antibacterial activity against multidrug-resistant Pseudomonas aeruginosa CCARM 2095 assessed as reduction in bacterial growth incubated for 24 hrs in presence of oxacillin by CLSI based broth dilution method; type: functional; details: read-out: MIC100
[11] = Antibacterial activity against multidrug-resistant Pseudomonas aeruginosa CCARM 2095 assessed as reduction in bacterial growth incubated for 24 hrs in presence of ciprofloxacin by CLSI based broth dilution method; type: functional; details: read-out: MIC100
[12] = system: Escherichia coli; test: Antibacterial activity against Escherichia coli KCTC 1682 assessed as reduction in bacterial growth incubated for 24 hrs in presence of 150 mM NaCl by CLSI based broth dilution method; type: functional; details: read-out: MIC100
[13] = system: Staphylococcus aureus; test: Antibacterial activity against methicillin-resistant Staphylococcus aureus CCARM 3090 assessed as fractional inhibitory concentration index incubated for 24 hrs in presence of ciprofloxacin by CLSI based broth dilution method; type: functional
[14] = system: Escherichia coli; test: Antibacterial activity against Escherichia coli KCTC 1682 assessed as reduction in bacterial growth incubated for 24 hrs in presence of 1 mM MgCl2 by CLSI based broth dilution method; type: functional; details: read-out: MIC100
[15] = system: Staphylococcus aureus; test: Antibacterial activity against Staphylococcus aureus KCTC 1621 assessed as reduction in bacterial growth incubated for 24 hrs in presence of 150 mM NaCl by CLSI based broth dilution method; type: functional; details: read-out: MIC100
[16] = Antibacterial activity against multidrug-resistant Pseudomonas aeruginosa CCARM 2095 assessed as fractional inhibitory concentration incubated for 24 hrs in presence of oxacillin by CLSI based broth dilution method; type: functional
[17] = system: Cell membrane; test: Induction of cell membrane permeability in Staphylococcus aureus KCTC 1621 assessed as cytoplasmic membrane depolarization at 2 times MIC by DiSC3-5 dye based spectrofluorometry; type: subcellular
[18] = system: Staphylococcus aureus; test: Antibacterial activity against Staphylococcus aureus KCTC 1621 assessed as reduction in bacterial growth incubated for 24 hrs in presence of 6 uM NH4Cl by CLSI based broth dilution method; type: functional; details: read-out: MIC100
[19] = system: Staphylococcus aureus; test: Antibacterial activity against methicillin-resistant Staphylococcus aureus CCARM 3090 assessed as reduction in bacterial growth incubated for 24 hrs in presence of chloramphenicol by CLSI based broth dilution method; type: functional; details: read-out: MIC100
[20] = system: RAW264.7; test: Antiinflammatory activity against mouse RAW264.7 cells assessed as reduction in LPS-induced iNOS mRNA expression at 5 uM incubated for 6 hrs by qRT-PCR analysis; type: functional, cell-based
[21] = system: Lipopolysaccharide (LPS); test: Displacement of BODIPY-TR cadaverine from Escherichia coli O111:B4 LPS at 10 uM measured for 100 sec by spectrofluorometry relative to control
[22] = system: Escherichia coli; test: Antibacterial activity against Escherichia coli KCTC 1682 assessed as reduction in bacterial growth incubated for 24 hrs in presence of 4 uM FeCl3 by CLSI based broth dilution method; type: functional; details: read-out: MIC100
[23] = system: Escherichia coli; test: Antibacterial activity against Escherichia coli KCTC 1682 assessed as reduction in bacterial growth incubated for 24 hrs in presence of 2.5 mM CaCl2 by CLSI based broth dilution method; type: functional; details: read-out: MIC100
[24] = Antibacterial activity against multidrug-resistant Pseudomonas aeruginosa CCARM 2095 assessed as fractional inhibitory concentration index incubated for 24 hrs in presence of ciprofloxacin by CLSI based broth dilution method; type: functional
[25] = system: Staphylococcus aureus; test: Antibacterial activity against methicillin-resistant Staphylococcus aureus CCARM 3090 assessed as fractional inhibitory concentration incubated for 24 hrs in presence of oxacillin by CLSI based broth dilution method; type: functional
[26] = system: Staphylococcus aureus; test: Antibacterial activity against Staphylococcus aureus KCTC 1621 assessed as reduction in bacterial growth incubated for 24 hrs in presence of 4 uM FeCl3 by CLSI based broth dilution method; type: functional; details: read-out: MIC100
[27] = system: Escherichia coli; test: Antibacterial activity against Escherichia coli KCTC 1682 assessed as reduction in bacterial growth incubated for 24 hrs in presence of 20 % serum by CLSI based broth dilution method; type: functional; details: read-out: MIC100
[28] = system: Staphylococcus aureus; test: Antibacterial activity against Staphylococcus aureus KCTC 1621 assessed as reduction in bacterial growth incubated for 24 hrs in presence of 4.5 mM KCl by CLSI based broth dilution method; type: functional; details: read-out: MIC100
[29] = system: Staphylococcus aureus; test: Antibacterial activity against methicillin-resistant Staphylococcus aureus CCARM 3090 assessed as fractional inhibitory concentration index incubated for 24 hrs in presence of chloramphenicol by CLSI based broth dilution method; type: functional
[30] = system: Staphylococcus aureus; test: Antibacterial activity against Staphylococcus aureus KCTC 1621 assessed as reduction in bacterial growth incubated for 24 hrs in presence of 20 % serum by CLSI based broth dilution method; type: functional; details: read-out: MIC100
[31] = system: Staphylococcus aureus; test: Antibacterial activity against methicillin-resistant Staphylococcus aureus CCARM 3090 assessed as reduction in bacterial growth incubated for 24 hrs in presence of ciprofloxacin by CLSI based broth dilution method; type: functional; details: read-out: MIC100
[32] = Antibacterial activity against multidrug-resistant Pseudomonas aeruginosa CCARM 2095 assessed as fractional inhibitory concentration incubated for 24 hrs in presence of chloramphenicol by CLSI based broth dilution method; type: functional
[33] = Antibacterial activity against multidrug-resistant Pseudomonas aeruginosa CCARM 2095 assessed as fractional inhibitory concentration index incubated for 24 hrs in presence of chloramphenicol by CLSI based broth dilution method; type: functional
[34] = system: RAW264.7; test: Antiinflammatory activity in mouse RAW264.7 cells assessed as neutralization of LPS binding by measuring LPS-FITC aggregation at 10 uM pretreated with LPS for 1 hr followed by compound addition and measured after 1 hr by flowcytometry analysis (reference value: 48.12 %); type: functional
[35] = system: RAW264.7; test: Antiinflammatory activity against mouse RAW264.7 cells assessed as reduction in LPS-induced TNFalpha mRNA expression at 10 uM incubated for 3 hrs by qRT-PCR analysis; type: functional, cell-based
[36] = system: Staphylococcus aureus; test: Antibacterial activity against methicillin-resistant Staphylococcus aureus CCARM 3090 assessed as fractional inhibitory concentration incubated for 24 hrs in presence of chloramphenicol by CLSI based broth dilution method; type: functional
[37] = Antibacterial activity against multidrug-resistant Pseudomonas aeruginosa CCARM 2095 assessed as fractional inhibitory concentration incubated for 24 hrs in presence of ciprofloxacin by CLSI based broth dilution method; type: functional
[38] = system: Lipopolysaccharide (LPS); test: Inhibition of Escherichia coli O111:B4 LPS aggregation assessed as increase in FITC-LPS dissociation by spectrofluorometry
[39] = system: Escherichia coli; test: Antibacterial activity against Escherichia coli KCTC 1682 assessed as reduction in bacterial growth incubated for 24 hrs in presence of 4.5 mM KCl by CLSI based broth dilution method; type: functional; details: read-out: MIC100
[40] = system: Staphylococcus aureus; test: Antibacterial activity against Staphylococcus aureus KCTC 1621 assessed as reduction in bacterial growth incubated for 24 hrs in presence of 1 mM MgCl2 by CLSI based broth dilution method; type: functional; details: read-out: MIC100
[41] = Antibacterial activity against multidrug-resistant Pseudomonas aeruginosa CCARM 2095 assessed as reduction in bacterial growth incubated for 24 hrs in presence of chloramphenicol by CLSI based broth dilution method; type: functional; details: read-out: MIC100
[42] = Antibacterial activity against multidrug-resistant Pseudomonas aeruginosa CCARM 2095 assessed as fractional inhibitory concentration index incubated for 24 hrs in presence of oxacillin by CLSI based broth dilution method; type: functional

## CC[C@H](C)[C@H](NC(=O)[C@H](CCCCN)NC(=O)[C@H](CCC(=O)O)NC(=O)[C@H](CCCCN)NC(=O)[C@H](CO)NC(=O)[C@H](CCCCN)NC(=O)[C@H](CCCNC(=N)N)NC(=O)[C@H](Cc1ccccc1)NC(=O)[C@H](Cc1ccccc1)NC(=O)[C@H](CC(=O)O)NC(=O)CNC(=O)[C@H](CC(C)C)NC(=O)[C@@H](N)CC(C)C)C(=O)NCC(=O)N[C@@H](CCCCN)C(=O)N[C@@H](CCC(=O)O)C(=O)N[C@@H](Cc1ccccc1)C(=O)N[C@@H](CCCCN)C(=O)N[C@@H](CCCNC(=N)N)C(=O)N[C@H](C(=O)N[C@H](C(=O)N[C@@H](CCC(N)=O)C(=O)N[C@@H](CCCNC(=N)N)C(=O)N[C@H](C(=O)N[C@@H](CCCCN)C(=O)N[C@@H](CC(=O)O)C(=O)N[C@@H](Cc1ccccc1)C(=O)N[C@@H](CC(C)C)C(=O)N[C@@H](CCCNC(=N)N)C(=O)N[C@@H](CC(N)=O)C(=O)N[C@@H](CC(C)C)C(=O)N[C@H](C(=O)N1CCC[C@H]1C(=O)N[C@@H](CCCNC(=N)N)C(=O)N[C@H](C(=O)N[C@@H](CCC(=O)O)C(=O)N[C@@H](CO)C(=O)O)[C@@H](C)O)C(C)C)[C@@H](C)CC)C(C)C)[C@@H](C)CC [CATHELICIDIN]
[1]
  Activity: 70.1%
[2]
  MIC: 128 µM
[3]
  Activity: Active
[4]
  fractional inhibitory concentration index (FICI): 0.75
[5]
  MIC: 16 µM
[6]
  Activity: Active
[7]
  MIC: 8 µM
[8]
  Activity: 25.44%
[9]
  FIC: 0.5
[10]
  MIC: 128 µM
[11]
  MIC: 128 µM
[12]
  MIC: 16 µM
[13]
  fractional inhibitory concentration index (FICI): 1
[14]
  MIC: 16 µM
[15]
  MIC: 16 µM
[16]
  FIC: 0.25
[17]
  Activity: Active
[18]
  MIC: 8 µM
[19]
  MIC: 64 µM
[20]
  inhibition: Active
[21]
  Activity: 68%
[22]
  MIC: 16 µM
[23]
  MIC: 16 µM
[24]
  fractional inhibitory concentration index (FICI): 1.25
[25]
  FIC: 0.25
[26]
  MIC: 16 µM
[27]
  MIC: 8 µM
[28]
  MIC: 8 µM
[29]
  fractional inhibitory concentration index (FICI): 0.75
[30]
  MIC: 8 µM
[31]
  MIC: 256 µM
[32]
  FIC: 0.5
[33]
  fractional inhibitory concentration index (FICI): 1
[34]
  Activity: 13.98%
[35]
  inhibition: Active
[36]
  FIC: 0.5
[37]
  FIC: 0.25
[38]
  inhibition: Dose-dependent effect
[39]
  MIC: 8 µM
[40]
  MIC: 8 µM
[41]
  MIC: 512 µM
[42]
  fractional inhibitory concentration index (FICI): 0.75
